Like-named read-outs stand apart in the source and are kept apart here.
Legend:
GSK3β kinase = GSK3β kinase (Homo sapiens (Human), UniProt P49841); assay: GSK3β kinase assay (Ser/Thr 09 peptide Z-lyte, FRET); assay type: biochemical; conditions: method text calls the value IC50;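 note: Coumarin/fluorescein emission ratio converted to percent phosphorylation against unphosphorylated (0%) and phosphorylated (100%) controls, 1 h compound incubation at room temperature, 11-point threefold dilutions from 10 µM, run in duplicate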
[1] = test system: Tau phosphorylation at Ser396 (pSer396), SH-SY5Y cells; assay: Tau phosphorylation at Ser396 (pSer396) in SH-SY5Y cells, ELISA/western blot; assay type: cell-based, human; conditions: Homo sapiens;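 note: cell lysates probed for reduced Tau pSer396 via ELISA (colorimetric) or western blot (chemiluminescence), both with one shared pSer396 antibody, EC50 for lowering phosphorylation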
[2] = test system: Tau phosphorylation at Threonine 212 (pT212Tau), HEK293T cells; assay: Tau phosphorylation at Threonine 212 (pT212Tau) in Dyrk1a- and MAPT-overexpressing HEK293T cells, sandwich ELISA; assay type: cell-based; conditions: Homo sapiens, HEK-293T, overnight (16-18 hours), read-out: Thr212 EC50
Experimental: Representative compounds were screened using the cell-based assay procedure for signal of Tau phosphorylation at Threonine 212 (pT212Tau) in a transiently double transfected (Dyrk1a- and MAPT-overexpressing) cell type as described below.
HEK293T cells (transfectable human embryonic kidney cells) were cultured in DMEM medium supplemented with 10% FBS and 1% penicillin/streptomycin.
HEK293T cells were transiently transfected to overexpress Dyrkla and microtubule-associated protein Tau (MAPT) genes. Specifically, Dyrkla and MAPT expression vectors were obtained from OriGene (10 μg of each, catalog numbers SC314641 and RC216166, respectively). A MaxiPrep for each vector was ordered and received from GeneWiz, yielding […] (resuspended at […]) of the Dyrkla expression vector, and 898 μg (resuspended at 1.796 μg/μL) of MAPT.
HEK293T cells were seeded at 1.0×10^7 cells in 10 mL per T-75 flask. […] One T-75 flask was designated as a no-vector negative control for pT212Tau signal.
After 4˜6 hours of incubation in transfection reagents, transiently double transfected HEK293T cells were dissociated by treatment with trypsin EDTA and seeded at 1.0×10^5 cells in 100 μL per well in 96-well plates. No-vector negative controls were seeded in separate 96-well plates to avoid the risk of the negative control cells picking up the overexpression during incubation. At the time of seeding, DMSO-resuspended Samumed compounds were dispensed to eight wells as a serial dilution from 10 μM to 4.6 nM final concentration in medium, or at 0.12 μM to 0.05 nM with particularly potent compounds. Cells were exposed to the representative compounds overnight (16-18 hours) in a 37° C. incubator.
96-Well flat-bottom plates were coated with 100 μL per well anti-HT7 capture antibody (ThermoFisher, MN1000) diluted 1:300 in 1×PBS at 4° C. overnight, with shaking at 500 rpm. After overnight capture antibody incubation, coated plates were washed four times with 200 µL per well of 1×PBS-0.05% Tween-20, and blocked for 1 hour with 200 μL per well of 1×PBS with 2% BSA. After 1 hour of blocking, plates were washed four times with 200 μL per well of 1×PBS-0.05% Tween-20, prior to sample loading.
Wells of compound-treated cells were visually checked for cell death before being washed with 200 μL per well of 1×DPBS supplemented with phosphatase inhibitor diluted to IX. Cells were then lysed with 100 μL 1×RIPA buffer supplemented with phosphatase and protease inhibitors (each diluted to a final 1×). Cells were shaken at 500 rpm, 4° C. for 20 minutes prior to further lysis (via manual scraping) and transfer to 96-well V-bottom collection plates (Corning, 3894). V-bottom plates were centrifuged at 4000 rpm, 4° C., for 15 minutes, and 100 μL of lysate supernatant from each well was directly tested for pT212Tau signal by sandwich ELISA.
Specifically, lysates were directly transferred to the coated and blocked ELISA plates for 2 hours before plates were washed four times with 200 μL per well of 1×PBS-0.05% Tween-20 and probed with 100 μL per well of anti-pT212Tau antibody (ThermoFisher, 44-740G) diluted 1:200 in 1×PBS for 2 hours. Plates were washed four times with 200 μL per well of 1×PBS-0.05% Tween-20 and probed with 100 μL per well of anti-rabbit/HRP conjugate (Cell Signaling Technology, 7074S) diluted 1:600 in 1×PBS for 1 hour. Plates were washed four times with 200 μL per well of 1×PBS-0.05% Tween-20 before 100 μL per well of TMB substrate solution (ThermoFisher, N301) was added. When colour development was observed, 100 μL per well of stop solution (ThermoFisher, N600) was added, and colorimetric detection of pT212Tau signal was read at 450 nm with the Cytation 3 Cell Imaging Multi-Mode Reader (BioTek). The signal was used to plot, draw the curves fitting, and determine the EC50 values in GraphPad Prism for tested representative compounds.

[3] = test system: Wnt activity (Sp5-Luc reporter in SW480 colon carcinoma cells); assay: Wnt activity screening assay (Sp5-Luc reporter gene assay); assay type: cell-based, human
Method in brief: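 Compounds at 10 points (1:3 steps, top 10 μM, 0.1% DMSO final) were incubated 36 to 48 h at 37° C with stable Sp5-Luc SW480 reporter cells in 1% FBS medium. Luciferase luminescence was then read and expressed relative to DMSO-only cells. Four-parameter variable-slope fitting yielded EC50 values.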

[4] = SH-SY5Y cells, overnight (16-18 h), read-out: pSer396 Tau EC50
[5] = Homo sapiens; Sp5-Luc reporter, SW480 cells, 36 to 48 hours
[6] = SH-SY5Y, read-out: pSer396 Tau EC50 (μM)
[7] = Homo sapiens, SW480, read-out: percent inhibition at 10 μM
[8] = Homo sapiens, SW480; read-out: percent inhibition at 10 μM

Chain of GSK3β kinase (P49841 whole entry): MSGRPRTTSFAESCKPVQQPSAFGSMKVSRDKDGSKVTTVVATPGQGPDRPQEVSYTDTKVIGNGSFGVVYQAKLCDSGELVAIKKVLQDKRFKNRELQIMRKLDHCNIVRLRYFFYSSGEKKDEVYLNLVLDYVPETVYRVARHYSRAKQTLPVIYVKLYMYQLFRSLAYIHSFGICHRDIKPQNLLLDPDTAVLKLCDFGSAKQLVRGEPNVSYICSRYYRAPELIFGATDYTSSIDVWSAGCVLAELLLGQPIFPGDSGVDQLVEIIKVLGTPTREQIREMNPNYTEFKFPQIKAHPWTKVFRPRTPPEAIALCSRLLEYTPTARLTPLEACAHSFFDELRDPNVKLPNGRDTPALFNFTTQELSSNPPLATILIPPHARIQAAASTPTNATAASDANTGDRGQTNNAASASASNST

SMILES	EC50 (GSK3β kinase)	EC50 [1, 4]	EC50 [3, 5]	EC50 [2]	EC50 [1, 6]	inhibition at 10 µM [3, 7]	inhibition at 10 µM [3, 8]
CN1CC2CCC(C1)N2C(=O)Nc1cc2cc(-c3cnn(C)c3)ccc2cn1 [Compound 61, 3-Methyl-N-(6-(1-methyl-1H-pyrazol-4-yl)isoquinolin-3-yl)-3,8-diazabicyclo[3.2.1]octane-8-carboxamide]	9210 nM	–	> 10000 nM	15 nM	> 10 µM	22.4%	–
Cc1nnc(-c2ccc3cnc(NC(=O)N4C5CCC4CN(C)C5)cc3c2)s1 [Compound 108, 3-Methyl-N-(6-(5-methyl-1,3,4-thiadiazol-2-yl)isoquinolin-3-yl)-3,8-diazabicyclo[3.2.1]octane-8-carboxamide]	671 nM	–	> 10000 nM	22 nM	> 10 µM	19.9%	–
Cc1nnc(-c2ccc3cnc(NC(=O)N4[C@@H]5CC[C@H]4C[C@H](NCCC(F)(F)F)C5)cc3c2)s1 [Compound 153, (1R,5S)-N-(6-(5-Methyl-1,3,4-thiadiazol-2-yl)isoquinolin-3-yl)-3-exo-((3,3,3-trifluoropropyl)amino)-8-azabicyclo[3.2.1]octane-8-carboxamide]	532 nM	–	> 10000 nM	528 nM	> 10 µM	3.4%	–
Cc1ncc(-c2ccc3cnc(NC(=O)[C@H]4CC[C@H](NCCF)CC4)cc3c2)o1 [Compound 155, trans-4-((2-fluoroethyl)amino)-N-(6-(2-methyloxazol-5-yl)isoquinolin-3-yl) cyclohexane-1-carboxamide]	668 nM	0.384 µM	2670 nM	26 nM	–	–	–
Cc1nnc(-c2ccc3cnc(NC(=O)N4[C@@H]5CC[C@H]4C[C@@H](NCCC(F)(F)F)C5)cc3c2)s1 [Compound 195, (1R,5S)-cis-N-(6-(5-methyl-1,3,4-thiadiazol-2-yl)isoquinolin-3-yl)-3-((3,3,3-trifluoropropyl)amino)-8-azabicyclo[3.2.1]octane-8-carboxamide]	1250 nM	–	> 10000 nM	46 nM	> 10 µM	13.8%	–
CN1CCC(N(C)C(=O)Nc2cc3cc(-c4cn(C)nn4)cc(F)c3cn2)CC1 [Compound 228, 3-(8-Fluoro-6-(1-methyl-1H-1,2,3-triazol-4-yl)isoquinolin-3-yl)-1-methyl-1-(1-methylpiperidin-4-yl)urea]	255 nM	6.4 µM	> 10000 nM	> 10000 nM	–	–	46.3%
CN1CCC(N(C)C(=O)Nc2cc3cc(-c4cnn(C)c4)cc(F)c3cn2)CC1 [Compound 230, 3-(8-Fluoro-6-(1-methyl-1H-pyrazol-4-yl)isoquinolin-3-yl)-1-methyl-1-(1-methylpiperidin-4-yl)urea]	3640 nM	–	> 10000 nM	56 nM	–	–	0%

Second part, led by results:

EC50 (GSK3β kinase)	EC50 [1, 4]	EC50 [3, 5]	SMILES	EC50 [2]	EC50 [1, 6]	inhibition at 10 µM [3, 7]	inhibition at 10 µM [3, 8]
22 nM	0.126 µM	434 nM	Cc1nnc(-c2ccc3cnc(NC(=O)[C@H]4CC[C@H](N(C)C)CC4)cc3c2)s1 [Compound 22, trans-4-(Dimethylamino)-N-(6-(5-methyl-1,3,4-thiadiazol-2-yl)isoquinolin-3-yl)cyclohexane-1-carboxamide]	11 nM	–	–	–
7 nM	0.058 µM	1460 nM	Cc1cn2c(n1)CN(C(=O)Nc1cc3cc(-c4nnc(C)s4)ccc3cn1)CC2 [Compound 58, 2-Methyl-N-(6-(5-methyl-1,3,4-thiadiazol-2-yl)isoquinolin-3-yl)-5,6-dihydroimidazo[1,2-a]pyrazine-7(8H)-carboxamide]	93 nM	–	–	–
1870 nM	> 10 µM	> 10000 nM	C[C@@H]1CN(C(=O)Nc2cc3cc(-c4cnn(C)c4)ccc3cn2)CCN1C [Compound 67, (R)-3,4-Dimethyl-N-(6-(1-methyl-1H-pyrazol-4-yl)isoquinolin-3-yl) piperazine-1-carboxamide]	6 nM	–	–	34.3%
320 nM	0.323 µM	3430 nM	COCCN[C@H]1CC[C@H](C(=O)Nc2cc3cc(-c4cnc(C)o4)ccc3cn2)CC1 [Compound 106, trans-4-((2-Methoxyethyl)amino)-N-(6-(2-methyloxazol-5-yl)isoquinolin-3-yl)cyclohexane-1-carboxamide]	137 nM	–	–	–
194 nM	–	3980 nM	COCCN[C@H]1CC[C@H](C(=O)Nc2cc3cc(-c4cnn(C)c4)ccc3cn2)CC1 [Compound 196, trans-4-((2-Methoxyethyl)amino)-N-(6-(1-methyl-1H-pyrazol-4-yl)isoquinolin-3-yl)cyclohexane-1-carboxamide]	19 nM	–	–	–
4500 nM	4.5 µM	3650 nM	Cc1nnc(-c2cc(F)c3cnc(NC(=O)N(C)C4CCN(C)CC4)cc3c2)s1 [Compound 227, 3-(8-Fluoro-6-(5-methyl-1,3,4-thiadiazol-2-yl)isoquinolin-3-yl)-1-methyl-1-(1-methylpiperidin-4-yl)urea]	691 nM	–	–	–
2820 nM	–	3890 nM	Cc1ncc(-c2ccc3cnc(NC(=O)N(C)C4CCN(C)CC4)cc3c2)o1 [Compound 231, 1-Methyl-3-(6-(2-methyloxazol-5-yl)isoquinolin-3-yl)-1-(1-methylpiperidin-4-yl)urea]	110 nM	–	–	–

Reference: patent publication US10604514B2, “6-(5-membered heteroaryl)isoquinolin-3-yl carboxamides and preparation and use thereof” (Samumed, LLC, priority 2017, dated 2020)
